The target of data set [1] is Human eNOS (Homo sapiens, UniProt P29474). The experiment in a line: NOS selectivity assay, human eNOS. The settings on record: calculated from IC50 with Cheng-Prusoff equation; read-out: Ki Human eNOS (he). It counts as biochemical. The protocol: The Ki values were calculated from the IC50 values of the corresponding dose-response curves using the Cheng-Prusoff equation. […] All standard errors were less than 5%. Selectivity values were determined by calculating the ratios of the respective Ki values.

Data set [2] concerns melanoma cells. The arrangement: method as in PMID 35105915. The settings on record: read-out: Cytotoxicity IC50; cited from earlier work.
Data set [3] relates to A375 cells. The experiment in a line: NanoString nCounter PanCancer IO 360 gene expression profiling. It counts as cell-based, human. The protocol: After treatment, the total RNA samples were collected from A375 cells using an RNeasy Mini Kit (#74104; Qiagen, Hilden, Germany) and stored at −80 °C prior to analysis. The nCounter PanCancer IO 360 Panel and nCounter Pro Analysis System (NanoString, Seattle, WA, USA) were used to quantify gene expression changes in 770 genes implicated in immune-oncological processes. The transcriptomic data were analyzed using ROSALIND online platform (https://www.rosalind.bio/, San Diego, CA, USA).
(b) Comparing IFN-γ treatment to control. (c) Comparing the combination treatment to IFN-γ alone. […] All the treatments were independently repeated three times. […] The analysis was based on the expression changes of genes involved in each specific pathway, with a higher score signifying a greater probability of pathway involvement.

Data set [4] deals with Human nNOS (Homo sapiens, UniProt P29475). The experiment in a line: nNOS inhibitory assay, human nNOS. Type of data set: biochemical. The following applies: calculated from IC50 with Cheng-Prusoff equation; read-out: Ki Human nNOS (hn). On the procedure: The Ki values were calculated from the IC50 values of the corresponding dose-response curves using the Cheng-Prusoff equation. […] Selectivity values were determined by calculating the ratios of the respective Ki values.

Data set [5] deals with CS91 murine melanoma allograft. The experiment in a line: In vivo anti-melanoma efficacy, immunocompetent allograft model, tumor volume. The settings on record: day 18, DBA/2 mice, nNOS inhibitor 10 mg/kg/day intraperitoneal, anti-PD-1 100 µg twice per week for 2 weeks. Also on record: species or system mouse. On the procedure:
(§1) As described above, male DBA/2 mice were purchased from Charles River and housed in the Chapman University vivarium under pathogen-free conditions. Each mouse received a subcutaneous injection in the flank with 0.25 × 10^6 CS91 cells suspended in 50% Matrigel. […] The body weight and tumor volume were measured twice weekly for three weeks. Tumors were measured using calipers, and the volume (mm^3) was calculated with the following formula: volume = [length × (width^2)]/2. The mice were sacrificed once their tumors reached 2000 mm^3, and dates were recorded for survival analysis.

In data set [6] the test system is CS91 murine melanoma allograft. The experiment in a line: Survival analysis in the murine melanoma model (endpoint tumor volume 2000 mm^3). Type of data set: in vivo, mouse. The following applies: DBA/2 mice, CS91, result in words. The protocol:
as §1
Statistical analyses were carried out using GraphPad Prism 9. Comparisons of multiple groups were performed using mixed-effects analysis of variance (ANOVA) followed by Tukey’s post hoc test for parametric data. Statistical comparisons of two groups were performed using an unpaired two-tailed t-test for parametric data. Statistical comparison for a simple 2 × 2 contingency table was performed using a Chi-Square calculator on Social Science Statistics. Kaplan Meier methods were utilized for estimating the survival probability over time, with a tumor volume of 2000 mm^3 marking the endpoint for the survival study. A p value less than 0.05 was considered statistically significant for all statistical analyses. Data are graphically represented as bar graphs with the mean ± standard error of the mean (SEM).

Data set [7] has as its system CS91 cells. Description: Ex vivo sensitivity of murine melanoma cells after prolonged treatment (MTT). It counts as cell-based, mouse. The protocol: The aseptically collected tumor samples were mechanically dissociated in 1× PBS and passed through a 40 µm cell strainer. Single cell suspensions were centrifuged and resuspended in full growth media supplemented with 100 µg/mL of primocin. The cells were then plated and allowed to adhere for 24 h. Afterward, the cultures were washed twice with 1× PBS to remove non-adherent cells and allowed to grow in full growth media.
GraphPad Prism 9 was used to determine the IC50 of each compound by plotting the percent cell viability against the log drug concentrations and fitted using a nonlinear fit of the normalized data.

The nature of data set [8]: Body weight, cecum weight and toxicity signs in treated mice. It counts as in vivo, mouse. The protocol: as §1
Upon reaching the study endpoint, the mice were euthanized, and organs were collected and weighed.

The subject of data set [9] is peripheral T cells. The experiment in a line: Immune profile of peripheral T cells in allograft melanoma mice (flow cytometry). Type of data set: in vivo, mouse. The settings on record: HH044 10 mg/kg intraperitoneal daily, peripheral blood, vs control group. On the procedure:
The in vivo studies were carried out in compliance with the ARRIVE guidelines. All animal procedures were approved by the Institutional Animal Care and Use Committee (IACUC) at Chapman University and conducted in compliance with the policies of Chapman University and federal, state, and local animal welfare authorities. DBA/2 mice were purchased from Charles River (Wilmington, MA, USA) and housed in the Chapman University vivarium. Male mice were selected for the in vivo studies due to the markedly slow growth rate of CS91 cells in female mice observed in previous studies. To induce melanoma tumor growth, the mice were injected subcutaneously with 1 × 10^5 CS91 murine melanoma cells in a 100 μL solution of 50% Matrigel basement membrane matrix (CB354248, Corning, Corning, NY, USA). […] At the end of the study, peripheral blood was collected from the mice for T cell analysis.
Cells were blocked in FACS block buffer (0.5% BSA, 2% FBS in 1× PBS) and incubated in a surface marker antibody dilution in FACS wash buffer (0.5% BSA, 0.05% NaN3 in 1× PBS). Following fixation with True-Nuclear Fix Buffer (424401; BioLegend, San Diego, CA, USA), the cells were incubated with an intracellular antibody diluted in True-Nuclear Perm Buffer (424401; BioLegend, San Diego, CA, USA) overnight at 4 °C. The stained cells were then washed with Perm Buffer and analyzed using a BD Fortessa X20 flow cytometer (BD Biosciences, San Jose, CA, USA). Compensation beads (anti-mouse 552843; anti-rat 552844; BD Biosciences, Franklin Lakes, NJ, USA) stained with single antibodies were used to calculate the compensation, and data were analyzed and gated using FlowJo v. 10.8.1 (FlowJo LLC, Ashland, OR, USA).
Peripheral blood samples were collected from the DBA/2 mice at the end of the study. T cells were isolated from the blood using Ficoll separation and stained as described above. The Ficoll-Paque solution was obtained from Cytiva (17144002; Marlborough, MA, USA). The T cell marker antibodies used were Brilliant Violet 605 anti-mouse CD3, PE/Cyanine7 anti-mouse CD4, Brilliant Violet 785 anti-mouse CD8a, APC/Cyanine7 anti-mouse CD279 (PD-1), Alexa Fluor 647 anti-GATA3, Alexa Fluor 488 anti-mouse FOXP3, Brilliant Violet 421 anti-T-bet (100237; 100421; 100749; 135223; 653809; 126406; 644815; BioLegend, San Diego, CA, USA), and PE-CF594 mouse anti-mouse RORγt (562684; BD Biosciences, Franklin Lakes, NJ, USA).

SMILES strings stand for the structures. Like-named read-outs stand apart in the source and are kept apart here.

Sequence of Human eNOS (P29474 whole entry): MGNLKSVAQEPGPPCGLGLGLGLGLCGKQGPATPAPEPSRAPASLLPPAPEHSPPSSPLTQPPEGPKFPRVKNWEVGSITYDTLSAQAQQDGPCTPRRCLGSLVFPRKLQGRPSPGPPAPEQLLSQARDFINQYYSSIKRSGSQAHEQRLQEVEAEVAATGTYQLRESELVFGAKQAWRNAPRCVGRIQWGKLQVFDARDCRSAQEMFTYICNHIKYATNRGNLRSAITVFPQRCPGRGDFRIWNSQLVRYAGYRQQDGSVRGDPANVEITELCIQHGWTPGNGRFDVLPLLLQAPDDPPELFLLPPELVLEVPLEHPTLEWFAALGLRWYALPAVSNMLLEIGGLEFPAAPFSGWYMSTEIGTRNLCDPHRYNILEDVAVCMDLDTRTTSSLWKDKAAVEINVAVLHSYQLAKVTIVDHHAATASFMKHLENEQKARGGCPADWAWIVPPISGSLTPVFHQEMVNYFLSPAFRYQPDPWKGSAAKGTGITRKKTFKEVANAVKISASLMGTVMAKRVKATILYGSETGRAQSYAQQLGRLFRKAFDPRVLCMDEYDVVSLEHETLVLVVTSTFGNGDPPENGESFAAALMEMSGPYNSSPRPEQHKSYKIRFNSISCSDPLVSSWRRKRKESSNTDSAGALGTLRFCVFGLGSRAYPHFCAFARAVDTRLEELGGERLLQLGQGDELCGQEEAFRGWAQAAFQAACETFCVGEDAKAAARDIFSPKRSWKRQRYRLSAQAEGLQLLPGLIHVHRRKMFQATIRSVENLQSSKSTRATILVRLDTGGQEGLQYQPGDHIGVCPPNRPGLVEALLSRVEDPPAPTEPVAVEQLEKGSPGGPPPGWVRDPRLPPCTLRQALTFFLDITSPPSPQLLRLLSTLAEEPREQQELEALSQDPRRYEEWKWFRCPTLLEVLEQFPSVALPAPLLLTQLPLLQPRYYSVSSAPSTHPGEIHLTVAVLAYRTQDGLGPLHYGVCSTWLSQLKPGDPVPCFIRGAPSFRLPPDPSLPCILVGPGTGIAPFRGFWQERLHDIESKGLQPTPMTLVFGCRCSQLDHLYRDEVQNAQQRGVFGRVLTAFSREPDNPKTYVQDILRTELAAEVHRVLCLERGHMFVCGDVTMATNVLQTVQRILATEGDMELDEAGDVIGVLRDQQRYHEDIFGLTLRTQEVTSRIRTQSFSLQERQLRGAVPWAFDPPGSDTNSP
Sequence of Human nNOS (P29475 whole entry): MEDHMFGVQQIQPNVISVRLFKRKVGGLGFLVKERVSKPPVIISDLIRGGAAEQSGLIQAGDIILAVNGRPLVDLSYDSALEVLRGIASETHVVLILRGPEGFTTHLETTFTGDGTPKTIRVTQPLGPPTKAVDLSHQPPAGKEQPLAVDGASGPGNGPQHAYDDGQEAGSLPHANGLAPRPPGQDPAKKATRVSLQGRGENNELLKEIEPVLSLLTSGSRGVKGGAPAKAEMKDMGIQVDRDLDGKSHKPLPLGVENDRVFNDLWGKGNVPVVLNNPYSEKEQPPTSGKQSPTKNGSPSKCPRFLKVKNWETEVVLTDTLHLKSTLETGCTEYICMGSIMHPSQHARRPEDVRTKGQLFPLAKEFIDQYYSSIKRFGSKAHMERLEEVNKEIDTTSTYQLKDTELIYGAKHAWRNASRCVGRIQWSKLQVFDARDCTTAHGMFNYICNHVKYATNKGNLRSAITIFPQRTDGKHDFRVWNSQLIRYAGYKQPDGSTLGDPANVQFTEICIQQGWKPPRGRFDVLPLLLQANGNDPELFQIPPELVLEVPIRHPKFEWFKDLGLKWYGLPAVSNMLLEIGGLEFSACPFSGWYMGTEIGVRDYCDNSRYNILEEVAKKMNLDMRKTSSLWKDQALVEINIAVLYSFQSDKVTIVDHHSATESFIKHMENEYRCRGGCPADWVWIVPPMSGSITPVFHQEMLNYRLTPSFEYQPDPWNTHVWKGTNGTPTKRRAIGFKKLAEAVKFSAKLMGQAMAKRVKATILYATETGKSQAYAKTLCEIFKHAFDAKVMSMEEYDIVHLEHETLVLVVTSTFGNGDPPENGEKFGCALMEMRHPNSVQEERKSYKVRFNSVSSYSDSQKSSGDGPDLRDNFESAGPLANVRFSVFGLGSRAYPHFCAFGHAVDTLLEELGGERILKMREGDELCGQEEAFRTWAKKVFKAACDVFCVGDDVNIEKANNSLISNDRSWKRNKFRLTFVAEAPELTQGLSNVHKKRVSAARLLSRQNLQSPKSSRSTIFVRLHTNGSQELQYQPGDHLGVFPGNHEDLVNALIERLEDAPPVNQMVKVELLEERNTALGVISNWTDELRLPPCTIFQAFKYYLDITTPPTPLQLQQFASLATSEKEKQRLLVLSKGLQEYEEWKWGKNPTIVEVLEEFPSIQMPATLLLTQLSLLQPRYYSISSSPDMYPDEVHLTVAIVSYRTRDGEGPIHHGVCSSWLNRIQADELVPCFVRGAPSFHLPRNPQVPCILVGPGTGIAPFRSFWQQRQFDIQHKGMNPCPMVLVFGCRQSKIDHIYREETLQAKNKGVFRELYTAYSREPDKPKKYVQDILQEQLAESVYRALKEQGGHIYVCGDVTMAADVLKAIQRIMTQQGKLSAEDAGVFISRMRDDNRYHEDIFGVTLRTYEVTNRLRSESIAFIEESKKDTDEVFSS

Take `N=C(Nc1ccc(CCNCc2cccc(NC(=N)c3cccs3)c2)cc1)c1cccs1` [HH044]: in [1], the Ki – broadly, the dissociation constant of the complex between target and ligand, obtained from inhibition or displacement – was 6.74 µM. In addition, the IC50 (in general, the point on the concentration scale where inhibition reaches its midpoint) in data set [2] was 5.27 ± 3.3 µM. Further, the Notch2 expression entry in data set [3] (HH044 in the presence of IFN-γ) is recorded as “increased”. Moreover, in data set [3] (HH044 treatment, A375), the AXIN1 expression entry is recorded as “increased” and the WNT5A expression entry is listed as “downregulated”. Further, the IL-1α expression in data set [3] (HH044 treatment, A375, p < 0.05) is listed as 30.3 % of the control. In addition, the “expression of EDN1, PDGFB, and MMP9” value in data set [3] (HH044 treatment, A375, vs control) was “significantly reduced”. Further, the inhibition constant (Ki) in data set [4] is 0.02 µM. In addition, the “tumor growth / average tumor volume” value in data set [5] is 45.7 % of the control. In data set [6], the “median survival / mouse survival compared with the control group” value is “not found to have significantly different median survival values”. In addition, in data set [7] (mice treated with the same compound 10 mg/kg/day intraperitoneal, read-out: IC50 of CS91 cells isolated from tumors of nNOS inhibitor-treated mice), the half-inhibitory concentration (IC50) is 10.4 µM. Besides, in data set [7] (read-out: IC50 of in vitro cultured CS91 cells), the 50% inhibitory concentration (IC50) is 12.7 µM. Besides, the cecum weights entry in [8] (HH044 intraperitoneal 10 mg/kg/day ≥21 days vs control, p < 0.0001) was “significantly increased”. Also, in [8] (HH044 oral gavage 10, 25 and 50 mg/kg per os daily, preliminary study), the cecum weight entry is listed as “failed to observe any significant differences”. The “behavior and signs of toxicity during treatment” value in data set [8] (HH044 treatment ≥21 days) is on record as “no behavioral changes or other observable signs of severe toxicity or distress”. In addition, in data set [8] (HH044 treatment, 21 days), the body weight is 88 % of the control. Further, in [8] (prolonged treatment, 21 days), the “body weight compared with the control” value is recorded as “significantly lower”. In data set [9], the “CD4+ T cell counts” value was “significantly increased”; the “CD4+GATA3+, CD4+RORγt+, CD4+Tbet+, and CD4+RORγt+FOXP3+ T cell counts” value was “decreased”; the “CD8+FOXP3+, CD8+GATA3+, CD8+Tbet+, and CD8+RORγt+FOXP3+ T cells” value is recorded as “significantly decreased”; the “frequency of CD8+PD-1+ T cells” value is “markedly increased”. Also, the “overall percentage of CD8+ T cells” value in data set [9] is listed as “significantly decreased”.
